One may read the MIC as the lowest concentration found to suppress growth.

Where only a bound is given, the exact number is not on record here.

The values below come from ChEMBL document CHEMBL4715829, “Heterodimeric Rifampicin-Tobramycin conjugates break intrinsic resistance of Pseudomonas aeruginosa to doxycycline and chloramphenicol in vitro and in a Galleria mellonella in vivo model” (Eur J Med Chem, 2019).

Data set [1] has as its system Pseudomonas aeruginosa. Put plainly: Potentiation of chloramphenicol-induced antibacterial activity against wild type Pseudomonas aeruginosa PAO1 assessed as fold change in chloramphenicol MIC at <=9.8 uM incubated for 18 hrs in presence of chloramphenicol by broth microdilution assay. Particulars: dose microM <=9.8. The data set is classed as functional.
Data set [2] deals with Pseudomonas aeruginosa. As to the kind of experiment: Potentiation of chloramphenicol-induced antibacterial activity against Pseudomonas aeruginosa 100036 assessed as fold change in chloramphenicol MIC at 9.8 uM incubated for 18 hrs in presence of chloramphenicol by broth microdilution assay relative to control. Format: functional. In general terms: Broth dilution looks for growth in wells or tubes with falling amounts of substance.

For data set [3], the system named is Pseudomonas aeruginosa. As to the kind of experiment: Antibacterial activity against Pseudomonas aeruginosa 260-97103 infected in Galleria mellonella larvae assessed as survival of larvae at 100 mg/kg treated at 3 hrs post-infection in presence of chloramphenicol and measured after 24 hrs relative to control. Format: functional.
Data set [4] relates to Pseudomonas aeruginosa. As to the kind of experiment: Antibacterial activity against Pseudomonas aeruginosa 101243 assessed as potentiation of chloramphenicol-induced antibacterial activity by measuring chloramphenicol MIC at 9.8 uM incubated for 18 hrs in presence of chloramphenicol by broth microdilution assay (reference value: 1 ug/ml). Format: functional.
The subject of data set [5] is Pseudomonas aeruginosa. As to the kind of experiment: Antibacterial activity against Pseudomonas aeruginosa 262-101856 assessed as fractional inhibitory concentration incubated for 18 hrs in presence of minocycline by broth microdilution assay. The data set is classed as functional.
In data set [6] the test system is Pseudomonas aeruginosa. Put plainly: Antibacterial activity against Pseudomonas aeruginosa 262-101856 assessed as potentiation of chloramphenicol-induced antibacterial activity by measuring chloramphenicol MIC at 9.8 uM incubated for 18 hrs in presence of chloramphenicol by broth microdilution assay (reference value: 2048 ug/ml). The data set is classed as functional.

Data set [7] relates to Pseudomonas aeruginosa. Put plainly: Antibacterial activity against Pseudomonas aeruginosa 264-101354 assessed as fractional inhibitory concentration index incubated for 18 hrs in presence of tigecycline by broth microdilution assay. Format: functional.
Data set [8] relates to Pseudomonas aeruginosa. As to the kind of experiment: Antibacterial activity against Pseudomonas aeruginosa 260-97103 infected in Galleria mellonella larvae assessed as survival of larvae at 75 mg/kg treated at 3 hrs post-infection in presence of doxycycline and measured after 24 hrs relative to control. Format: functional.
Data set [9] concerns Pseudomonas aeruginosa. Put plainly: Antibacterial activity against Pseudomonas aeruginosa 114228 assessed as fractional inhibitory concentration incubated for 18 hrs in presence of tigecycline by broth microdilution assay. Format: functional.
Data set [10] concerns Pseudomonas aeruginosa. Put plainly: Antibacterial activity against Pseudomonas aeruginosa 259-96918 assessed as fractional inhibitory concentration index incubated for 18 hrs in presence of tigecycline by broth microdilution assay. Format: functional.
For data set [11], the system named is Pseudomonas aeruginosa. Put plainly: Antibacterial activity against Pseudomonas aeruginosa 91433 assessed as potentiation of chloramphenicol-induced antibacterial activity by measuring chloramphenicol MIC at 9.8 uM incubated for 18 hrs in presence of chloramphenicol by broth microdilution assay (reference value: 8 ug/ml). The data set is classed as functional.

For data set [12], the system named is HEK293. As to the kind of experiment: Cytotoxicity against human HEK293 cells assessed as cell viability at 50 uM incubated for 48 hrs in presence of chloramphenicol by prestoblue assay. The data set is classed as cell-based. Particulars: hek293, 48 h.
Data set [13] concerns Enterobacter cloacae. As to the kind of experiment: Potentiation of chloramphenicol-induced antibacterial activity against Enterobacter cloacae ATCC 117029 assessed as fold change in chloramphenicol MIC at 9.8 uM incubated for 18 hrs in presence of chloramphenicol by broth microdilution assay relative to control. The data set is classed as functional.
Data set [14] has as its system Escherichia coli. Put plainly: Potentiation of doxycycline-induced antibacterial activity against Escherichia coli ATCC 25922 assessed as fold change in doxycycline MIC at 9.8 uM incubated for 18 hrs in presence of doxycycline by broth microdilution assay relative to control. The data set is classed as functional.
The test system of data set [15] is Pseudomonas aeruginosa. As to the kind of experiment: Potentiation of doxycycline-induced antibacterial activity against Pseudomonas aeruginosa 91433 assessed as fold change in doxycycline MIC at 9.8 uM incubated for 18 hrs in presence of doxycycline by broth microdilution assay relative to control. Format: functional.
The subject of data set [16] is Pseudomonas aeruginosa. As to the kind of experiment: Antibacterial activity against Pseudomonas aeruginosa 100036 assessed as fractional inhibitory concentration incubated for 18 hrs in presence of minocycline by broth microdilution assay. The data set is classed as functional.
Data set [17] relates to Acinetobacter baumannii. Put plainly: Potentiation of doxycycline-induced antibacterial activity against Acinetobacter baumannii ATCC 17978 assessed as fold change in doxycycline MIC at 9.8 uM incubated for 18 hrs in presence of doxycycline by broth microdilution assay relative to control. Format: functional.
Data set [18] has as its system Pseudomonas aeruginosa. As to the kind of experiment: Antibacterial activity against Pseudomonas aeruginosa 91433 assessed as fractional inhibitory concentration incubated for 18 hrs in presence of tigecycline by broth microdilution assay. Format: functional.
Data set [19] concerns Pseudomonas aeruginosa. Put plainly: Potentiation of chloramphenicol-induced antibacterial activity against Pseudomonas aeruginosa 91433 assessed as fold change in chloramphenicol MIC at 7.6 uM incubated for 18 hrs in presence of chloramphenicol by broth microdilution assay relative to control. Format: functional.
For data set [20], the system named is Pseudomonas aeruginosa. Put plainly: Antibacterial activity against Pseudomonas aeruginosa 264-101354 assessed as potentiation of doxycycline-induced antibacterial activity by measuring doxycycline MIC at 7.6 uM incubated for 18 hrs in presence of doxycycline by broth microdilution assay (reference value: 64 ug/ml). The data set is classed as functional.
In data set [21] the test system is Pseudomonas aeruginosa. As to the kind of experiment: Potentiation of doxycycline-induced antibacterial activity against Pseudomonas aeruginosa 100036 assessed as fold change in doxycycline MIC at 7.6 uM incubated for 18 hrs in presence of doxycycline by broth microdilution assay relative to control. Format: functional.
Data set [22] has as its system Pseudomonas aeruginosa. As to the kind of experiment: Potentiation of chloramphenicol-induced antibacterial activity against Pseudomonas aeruginosa 100036 assessed as fold change in chloramphenicol MIC at 7.6 uM incubated for 18 hrs in presence of chloramphenicol by broth microdilution assay relative to control. The data set is classed as functional.
The subject of data set [23] is Pseudomonas aeruginosa. Put plainly: Potentiation of doxycycline-induced antibacterial activity against Pseudomonas aeruginosa 262-101856 assessed as fold change in doxycycline MIC at 7.6 uM incubated for 18 hrs in presence of doxycycline by broth microdilution assay relative to control. Format: functional.
Data set [24] relates to Escherichia coli. Put plainly: Potentiation of doxycycline-induced antibacterial activity against Escherichia coli ATCC 25922 assessed as fold change in doxycycline MIC at 7.6 uM incubated for 18 hrs in presence of doxycycline by broth microdilution assay relative to control. Format: functional.
For data set [25], the system named is Pseudomonas aeruginosa. Put plainly: Antibacterial activity against Pseudomonas aeruginosa 91433 assessed as potentiation of doxycycline-induced antibacterial activity by measuring doxycycline MIC at 7.6 uM incubated for 18 hrs in presence of doxycycline by broth microdilution assay (reference value: 32 ug/ml). Format: functional.
The subject of data set [26] is Pseudomonas aeruginosa. Put plainly: Antibacterial activity against Pseudomonas aeruginosa 114228 assessed as potentiation of chloramphenicol-induced antibacterial activity by measuring chloramphenicol MIC at 7.6 uM incubated for 18 hrs in presence of chloramphenicol by broth microdilution assay (reference value: 64 ug/ml). The data set is classed as functional.
For data set [27], the system named is Pseudomonas aeruginosa. Put plainly: Potentiation of doxycycline-induced antibacterial activity against Pseudomonas aeruginosa 259-96918 assessed as fold change in doxycycline MIC at 7.6 uM incubated for 18 hrs in presence of doxycycline by broth microdilution assay relative to control. Format: functional.
The test system of data set [28] is Pseudomonas aeruginosa. Put plainly: Potentiation of doxycycline-induced antibacterial activity against Pseudomonas aeruginosa 114228 assessed as fold change in doxycycline MIC at 7.6 uM incubated for 18 hrs in presence of doxycycline by broth microdilution assay relative to control. Format: functional.
Data set [29] deals with Pseudomonas aeruginosa. As to the kind of experiment: Antibacterial activity against Pseudomonas aeruginosa 91433 assessed as fractional inhibitory concentration incubated for 18 hrs in presence of doxycycline by broth microdilution assay. Format: functional.
Data set [30] relates to Pseudomonas aeruginosa. As to the kind of experiment: Antibacterial activity against Pseudomonas aeruginosa 260-97103 assessed as reduction in bacterial growth by measuring doxycycline MIC at 8 ug/ml incubated for 18 hrs in presence of doxycycline by broth microdilution assay (reference value: 16 ug/ml). Format: functional. Particulars: dose 8 µg/ml.

Regarding `CO[C@H]1/C=C/O[C@@]2(C)Oc3c(C)c(O)c4c(O)c(c(/C=N/N5CCN(Cc6cn(CCCCCCO[C@@H]7[C@@H](O[C@H]8O[C@H](CO)[C@@H](O)[C@H](N)[C@H]8O)[C@H](N)C[C@H](N)[C@H]7O[C@H]7O[C@H](CN)[C@@H](O)C[C@H]7N)nn6)CC5)c(O)c4c3C2=O)NC(=O)/C(C)=C\C=C\[C@H](C)[C@H](O)[C@@H](C)[C@@H](O)[C@@H](C)[C@H](OC(C)=O)[C@@H]1C.Cl.Cl.Cl.Cl.Cl`, the “fold change (FC)” value is listed as 32 in data set [1]; 4 in data set [2]; 0 in data set [13]; 0 in [14]; 4 in [15]; 0 in data set [17]. Also, in data set [3], the survival at 100 mg/kg turned out to be 45%. Besides, the MIC in data set [4] stood at 0.125 µg/mL; in data set [6], 128 µg/mL; in data set [11] it was 2 µg/mL. Also, the FIC in [5] is on record as below 0.063; in data set [9], below 0.031; in data set [16] it was 0.063; in data set [18], below 0.125. Further, the “fractional inhibitory concentration index (FICI)” value in data set [7] is 0.19; in data set [10], below 0.25. The survival at 75 mg/kg in [8] came to 55%. Further, the Activity entry in data set [12] is “Non-Toxic”.
Take `CO[C@H]1/C=C/O[C@@]2(C)Oc3c(C)c(O)c4c(O)c(c(/C=N/N5CCN(Cc6cn(CCCCCCCCCCCCO[C@@H]7[C@@H](O[C@H]8O[C@H](CO)[C@@H](O)[C@H](N)[C@H]8O)[C@H](N)C[C@H](N)[C@H]7O[C@H]7O[C@H](CN)[C@@H](O)C[C@H]7N)nn6)CC5)c(O)c4c3C2=O)NC(=O)/C(C)=C\C=C\[C@H](C)[C@H](O)[C@@H](C)[C@@H](O)[C@@H](C)[C@H](OC(C)=O)[C@@H]1C.O=C(O)C(F)(F)F.O=C(O)C(F)(F)F.O=C(O)C(F)(F)F.O=C(O)C(F)(F)F.O=C(O)C(F)(F)F`: the “fold change (FC)” value in data set [19] is given as 4; in [21], 4; in data set [22], 4; in data set [23] it was 4; in data set [24], 0; in [27], 4. In data set [28], the “fold change (FC)” value is 4. For the same compound, the minimal inhibitory concentration (MIC) is 1 µg/mL in data set [20], 0.25 µg/mL in data set [25] and 8 µg/mL in data set [26].
On to `NC[C@H]1O[C@H](O[C@H]2[C@H](O)[C@@H](O[C@H]3O[C@H](CO)[C@@H](O)[C@H](N)[C@H]3O)[C@H](N)C[C@@H]2N)[C@H](N)C[C@@H]1O` [TOBRAMYCIN], for which the FIC in data set [29] is 0.5. In [30], the minimum inhibitory concentration (MIC) worked out at 16 µg/mL.
